Experimental data: US20240115545A1, “PHARMACEUTICAL COMPOSITION CONTAINING B-LAPACHONE AS ACTIVE INGREDIENT FOR PREVENTION OR TREATMENT OF CHOLESTATIC LIVER DISEASE” (CUROME BIOSCIENCES CO., LTD., priority 2020, published 2024)

Legend:
[1] = tested on: inflammatory cytokine factors in the colon tissue; assay: mRNA levels of inflammatory cytokine factors in colon tissue of DSS mice (Example 6.2); assay type: in vivo; conditions: DSS + β-lapachone 80 mg/kg
Procedure: (§1) After 8-week-old C57BL/6 female mice (Samtako, Korea) were divided into each group (=10), each experimental group was fed a standard rodent diet supplemented with 3% (w/w) DSS in drinking water for the first 5 days to induce acute colitis and orally administered control (vehicle), β-lapachone 40 mg/kg, and β-lapachone 80 mg/kg for 14 days.
By the same method as in Example 6.1, experimental groups were divided into a DSS untreated group (Control), a DSS treated group, and a DSS+β-lapachone 80 mg/kg treated group, respectively, and treated. After the end of the experiment, the mice were sacrificed to remove the colon, and the accurate colon length was measured using a Vernier caliper, and is shown FIGS. 11A and 11B. In addition, the mRNA levels of genes of interleukin-1beta (IL-1β), interleukin-6 (IL-6), interleukin-18 (IL-18), interferon-γ (INF-γ), tumor necrosis factor-α (TNF-α), tumor necrosis factor-β (TNF-β), and monocyte chemoattractant protein-1 (MCP-1), which were inflammatory cytokine factors in the colon tissue, were analyzed by a real-time polymerase chain reaction through a conventional experiment procedure, and are shown in FIG. 12.

[2] = tested on: DSS-induced inflammatory bowel disease mice; assay: Survival rate, body weight and colitis score in DSS-induced acute colitis mice (Example 6.1); assay type: in vivo; conditions: for mice died: 14th day of the experiment (DSS alone 70%)
Procedure: Dextran sodium sulfate (DSS)-induced acute colitis mouse models were constructed using 8-week-old C57BL/6 female mice (Samtako, Korea).
as §1
All animal-related procedures were discussed and approved by the Institutional Animal Care and Use Committee of the Hanyang University. The survival rate over time is shown in FIG. 9, and the change rate in body weight of mice in each experimental group was measured and shown in FIG. 10A. The fecal occult bleeding per rectum, total bleeding loss, and fecal concentration were measured daily.

[3] = tested on: DDC-induced cholestatic liver disease mice; assay: Sirius Red and Masson's trichrome staining of liver connective tissue, DDC-induced cholestatic liver disease mice; assay type: in vivo; conditions: 40 and 80 mg/kg in diet, DDC 14 days
Procedure: DDC-induced cholestatic liver disease mouse animal models were prepared according to the method of Elisa Pose et al. by using 8-week-old C57BL/6 male mice (Samtako, Korea). Briefly, cholestatic liver disease was induced by feeding a standard rodent diet supplemented with 0.1% (w/w) DDC for 7 or 14 days. The 12-hour light and dark cycle was maintained and animals were allowed to free access to water. The standard rodent diet included medium wheat, wheat, corn, and corn gluten flour, and soybean oil (14% protein). All animal related procedures were reviewed and approved by the Institutional Animal Care and Use Committee of Korea Research Institute of Bioscience and Biotechnology (KRIBB), KRIBB-AEC-20165). The tissue staining of the cholestatic liver disease animal models was measured through H&E staining (basic tissue staining), Sirius Red staining (collagen staining), and Masson's trichrome staining (collagen, cytoplasm, muscle fibers, etc.), and the tissue staining was measured by a skilled researcher. To investigate the preventive effect of β-Lapachone (BL) on cholestatic liver disease, the mice were fed a diet with 0 (DDC-vehicle), 40 mg/kg (DDC-BL40) and 80 mg/kg (DDC-BL80) 3 days before DDC treatment (total 17 days) and, after 3 days, were fed a diet with DDC (total 14 days). […]

[4] = tested on: peripheral blood mononuclear cells (PBMCs); assay: IL-1β and IL-18 expression in LPS and ATP treated peripheral blood mononuclear cells; assay type: cell-based, mice; conditions: LPS 200 ng/mL and ATP, 0.5, 1, 2 μM β-lapachone, 4 hours
Procedure: Considering that inflammatory cytokines mediate the pathogenic mechanism of cholestatic liver disease, the peripheral blood mononuclear cell model was used by a modified method of Boyum et al. (1968). Peripheral blood mononuclear cells isolated from healthy 8-week-old C57BL/6 male mice (Samtako, Korea) were maintained by primary culture in RPMI-1640 medium containing 10% FBS, 2 mM glutamine, 100 U penicillin, and 0.1 mg/ml streptomycin. Stable peripheral blood mononuclear cells (PBMCs) were treated with LPS at 200 ng/mL and ATP and β-lapachone at 0, 0.5, 1, 2 μM in the medium and, after 4 hours, the expression levels of IL-1β and IL-18 were investigated, and the results are shown in FIG. 15.

fibrosis-related genes = assay: Real-time PCR of fibrosis-related genes in liver tissue, preventive β-lapachone in DDC mice (Example 2.3); assay type: in vivo; conditions: DDC-BL40 and DDC-BL80 vs DDC-vehicle, DDC 14 days
Procedure: DDC-induced cholestatic liver disease mouse animal models were prepared according to the method of Elisa Pose et al. by using 8-week-old C57BL/6 male mice (Samtako, Korea). Briefly, cholestatic liver disease was induced by feeding a standard rodent diet supplemented with 0.1% (w/w) DDC for 7 or 14 days. The 12-hour light and dark cycle was maintained and animals were allowed to free access to water. The standard rodent diet included medium wheat, wheat, corn, and corn gluten flour, and soybean oil (14% protein). All animal related procedures were reviewed and approved by the Institutional Animal Care and Use Committee of Korea Research Institute of Bioscience and Biotechnology (KRIBB), KRIBB-AEC-20165). To investigate the preventive effect of β-Lapachone (BL) on cholestatic liver disease, the mice were fed a diet with 0 (DDC-vehicle), 40 mg/kg (DDC-BL40) and 80 mg/kg (DDC-BL80) 3 days before DDC treatment (total 17 days) and, after 3 days, were fed a diet with DDC (total 14 days). After 14 days of DDC treatment, the mice were sacrificed and the liver was harvested including the portal vein (PV) and bile ducts of the mice, and the surrounding lesions were confirmed by H&E, and are shown in FIG. 1. The expression of the factors in the liver tissue obtained from the cholestatic liver disease mouse animal models of Example 2.1 was performed by a real-time polymerase chain reaction was performed according to the following procedure. Total RNA from liver samples was extracted using Tri-RNA Reagent (Favrogen BIOTECH CORP, Nong-Ke Rd, Taiwan) according to the procedure presented by Favrogen, and was reverse transcribed into cDNA by using PrimeScript™ RT reagent Kit with gDNA Eraser (TAKARA Korea Biomedical Inc, Seoul, 08506, Korea). Quantitative PCR was performed using TB Green™ Premix Ex Taq™ II (Tli RNaseH Plus), ROX plus (TAKARA Korea Biomedical Inc, Seoul, 08506, Korea) and QuantStudio 5 Real-Time PCR Instrument (Thermo Fisher Scientific, Waltham, MA, USA).

SMILES: CC1(C)CCC2=C(O1)c1ccccc1C(=O)C2=O [β-lapachone]
- mRNA level of IL-1β in colon tissue [1]: significantly reduced
- mRNA level of IL-6 in colon tissue [1]: significantly reduced
- mRNA level of IL-18 in colon tissue [1]: significantly reduced
- mRNA level of INF-γ in colon tissue [1]: significantly reduced
- mRNA level of MCP-1 in colon tissue [1]: significantly reduced
- mRNA level of TNF-α in colon tissue [1]: significantly reduced
- mRNA level of TNF-β in colon tissue [1]: significantly reduced
- mice died ([2]; 40 mg/kg orally for 14 days): 50%
- body weight recovered, relative to initial body weight ([2]; 80 mg/kg orally (DSS alone reduced to 75% on Day 8)): up to 90%
- mice died ([2]; 80 mg/kg orally for 14 days): 20%
- colitis score ([2]; 40 and 80 mg/kg orally, 14 days): reduced depending on the treatment concentration
- body weight reduction by DSS ([2]; groups treated with β-lapachone 40 and 80 mg/kg orally): inhibited
- formation of connective tissues / fibrosis progression (Sirius Red and Masson's trichrome staining) [3]: inhibited such fibrosis progression
- expression level of IL-1β increased by LPS and ATP [4]: reduced depending on the concentration
- expression level of IL-18 increased by LPS and ATP [4]: reduced depending on the concentration
- transcriptional level of Co|1α1 in liver (fibrosis-related genes): significantly reduced
- transcriptional level of Co|4α1 in liver (fibrosis-related genes): significantly reduced
- transcriptional level of TGF-β1 in liver (fibrosis-related genes): significantly reduced
- transcriptional level of fibronectin in liver (fibrosis-related genes): significantly reduced
- transcriptional level of α-SMA in liver (fibrosis-related genes): significantly reduced
